Experimental data: patent US20050120397A1, “Compounds and methods for regulation of spermatid differentiation” (priority 2003, published 2005)
“Also recorded” adds a separate entry of the source. Residues, ends and D or L forms follow the SMILES beside them. *: point of attachment. Cbz = O=C(OCc1ccccc1)*; CH2F = FC*

B1: p35: baculoviral broad-spectrum caspase inhibitor p35, expressed in male gonads via the GAL4/UAS system (protein, UniProt P08160 1-299, looked up)
Early 35 kDa protein: MCVIFPVEIDVSQTIIRDCQVDKQTRELVYINKIMNTQLTKPVLMMFNISGPIRSVTRKNNNLRDRIKSKVDEQFDQLERDYSDQMDGFHDSIKYFKDEHYSVSCQNGSVLKSKFAKILKSHDYTDKKSIEAYEKYCLPKLVDERNDYYVAVCVLKPGFENGSNQVLSFEYNPIGNKVIVPFAHEINDTGLYEYDVVAYVDSVQFDGEQFEEFVQSLILPSSFKNSEKVLYYNEASKNKSMIYKALEFTTESSWGKSEKYNWKIFCNGFIYDKKSKVLYVKLHNVTSALNKNVILNTIK

Key:
Drosophila S2 cells = settings: cited from earlier work
[1] = system: spermatid individualization in cultured testes; test: Testes cultures with caspase inhibitor (spermatid individualization); type: cell-based, Drosophila; settings: isolated testes cultured 24-26 hours at 25° C. with 30 mm Z-VAD(OMe)-FMK
Experimental: At least 20 testes were examined for each experiment described. Testes of young adults were dissected in testis buffer (TB) which consisted of: 10 mM Tris-HCl, pH 6.8, 183 mM KCl, 47 mM NaCl, 1 mM EDTA, and 1 mM PMSF. Dissected testes were transferred to a […] droplet of TB placed on a siliconized coverslip (GOLD SEAL), opened using thin forceps, and sandwiched with a poly-L-lysine-coated slide. The sandwich was frozen in liquid nitrogen, the coverslip was removed with a razor blade, and the slide was placed in ice-cold absolute ethanol. The slides were drained and a hydrophobic ring surrounding the opaque tissue was drawn using a PAP PEN (Zymed Laboratories Inc.). The tissue was fixed in 4% formaldehyde in PBS for 20 minutes, rinsed twice with PBS for 5 minutes, incubated in PBT (PBS+0.1% Triton X-100) for 30 minutes, and rinsed twice again. The fixed testes were then blocked with PBS/BSA (1% BSA in PBS) for 45 minutes, incubated with primary antibody (diluted in PBS/BSA) within the hydrophobic ring overnight at […] inside a humid chamber, and rinsed twice for 5 minutes in PBS. […] Caspase inhibition of IC caudal movement was determined in vitro, using isolated pairs of testes from young adult flies (n=10). […]

drICE = target: T1, drICE (Drosophila melanogaster, UniProt O01382); settings: cited from earlier work
T1 sequence (O01382 29-217 limits assumed): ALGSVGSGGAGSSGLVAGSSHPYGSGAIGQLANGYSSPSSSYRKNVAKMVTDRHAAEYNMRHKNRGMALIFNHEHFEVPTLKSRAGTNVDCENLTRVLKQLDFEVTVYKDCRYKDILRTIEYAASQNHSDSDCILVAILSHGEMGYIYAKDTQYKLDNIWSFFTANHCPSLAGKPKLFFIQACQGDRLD
T1 sequence (O01382 231-339 limits assumed): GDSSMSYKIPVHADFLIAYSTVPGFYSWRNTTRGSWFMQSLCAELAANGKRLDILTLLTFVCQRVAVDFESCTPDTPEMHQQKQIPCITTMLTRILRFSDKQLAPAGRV

[2] = system: spermatid individualization and male fertility; test: Expression of p35 in male gonads (Hsp83-gal4 x UAS-p35): fertility test and cytological analysis; type: in vivo, Drosophila
[3] = ectopic expression of p35 in male germ cells

Molecule | drICE-induced cell death (Drosophila S2 cells) | IC (individualization complex) translocation ([1]; versus DMSO control) | cystic bulge (CB) morphology / collection of cytoplasm into CBs ([1]; versus DMSO control testis of same individual) | activity of drICE in vitro (drICE) | CM1-staining (active drICE) [2, 3] | spermatid individualization / CB and WB morphology in vivo [2, 3] | IC translocation in vivo ([2]; male progeny with Hsp83-gal4 driver and UAS-p35 construct) | male fertility ([2]; male progeny with Hsp83-gal4 driver and UAS-p35 construct, parental lines fertile)
COC(=O)C[C@H](NC(=O)[C@H](C)NC(=O)[C@@H](NC(=O)OCc1ccccc1)C(C)C)C(=O)CF [Z-VAD, Z-VAD(OMe)-FMK] (Cbz-Val-Ala-Asp(OMe)-CH2F) | blocks | no evidence of IC translocation | advanced CBs that appeared flat; also recorded: flat, irregular CBs | blocks the activity of drICE in vitro |  |  |  | 
B1 |  |  |  |  | failing to block CM1-staining | the cytoplasm failed to collect to form a normal CB; also recorded: blocked individualization; also recorded: scattered IC cones and flat CBs and WBs | IC translocation was severely impaired | sterile
